This note sets out measurements from patent publication US11160767B2, “4,4′-trans-dihydroxystilbene for use in treating cancer” (The George Washington University, a Congressionally …, priority 2017, dated 2021).

In one experiment the test system is MDA-231/GFP. The experiment in a line: In vitro cytotoxicity (SRB assay), MDA-231/GFP. It counts as cell-based. The conditions noted are these: Homo sapiens, MDA-MB-231, 72 hours. As to the method:
(§1) Cell lines and cell culture. HCT116, U205, PANC-1, MDA-231 cell lines were purchased from the American Type Culture Collection (Rockville, Md., US). Cells were cultured in the DMEM medium (Lonza, Basel, Switzerland) containing 10% fetal bovine serum (Gibco, Grand Island, N.Y., US), 100 Units/ml penicillin, 100 Units/mL streptomycin, […] L-glutamine (Gibco, Grand Island, N.Y., US) at 37° C. in a humidified atmosphere with 5% CO2.
(§2) In vitro cytotoxicity assays. […] SRB assay (Vichai and Kirtikara, 2006) was performed and the absorbance at 510 nm was read with a plate reader. The proliferation rate was calculated according to the Manufacturer's instruction. The IC50 value for each compound was determined from dose-effect relationship using the CompuSyn software (version 1.0.1; CompuSyn, Inc, Paramus, N.J.) (Chou, 2006). Cell proliferating doubling time was monitored over a period of 72 hours.
A general note: Sulforhodamine B stains cellular protein and so reports cell mass.

A further experiment has as its system HCT116. Briefly: In vitro cytotoxicity (SRB assay), HCT116. The settings on record: Homo sapiens, HCT-116, 72 hours. It counts as cell-based. On the procedure: as §1, §2
The subject of experiment [1] is HCT116 cells, U2OS cells, MDA-231/GFP cells, and PANC-1 cells. Briefly: Cytotoxicity across the four cancer cell lines (SAR summary). It counts as cell-based. The settings on record: range over four cell lines. As to the method: In vitro cytotoxicity assays. Cells growing in the Log phase were treated with various compounds at different concentrations (generally 0.137 to 100 μM) for 72 hours at 37° C. SRB assay (Vichai and Kirtikara, 2006) was performed and the absorbance at 510 nm was read with a plate reader. The proliferation rate was calculated according to the Manufacturer's instruction. The IC50 value for each compound was determined from dose-effect relationship using the CompuSyn software (version 1.0.1; CompuSyn, Inc, Paramus, N.J.) (Chou, 2006). Cell proliferating doubling time was monitored over a period of 72 hours.
Based on identification of resveratrol as a lead compound in the drug screening assays, the anti-cancer activity of synthetic resveratrol analogs (FIG. 2) was next investigated and compared to resveratrol using HCT116 cells, U2OS cells, MDA-231/GFP cells, and PANC-1 cells.
The structure activity relationship (SAR) of the derivatives of resveratrol were considered.

A further experiment relates to PANC-1. Briefly: In vitro cytotoxicity (SRB assay), PANC-1. It counts as cell-based. The settings on record: Homo sapiens, 72 hours. On the procedure: as §1, §2
In another experiment the test system is U2OS. The experiment in a line: In vitro cytotoxicity (SRB assay), U2OS. It counts as cell-based. The conditions noted are these: Homo sapiens, 72 hours. As to the method: as §1, §2
The subject of experiment [2] is HCT116 cells. Briefly: DNA fiber assay. It counts as cell-based, human. The settings on record: added 2 hours prior to labeling. On the procedure:
Thus, the effect of DHS on DNA replication and cell cycle progression was investigated. Replication fork speeds were examined by DNA fiber assay (FIG. 7A). Briefly, DHS, hydroxyurea (Hu), or Aphidicolin (Aph) was added to HCT116 cells 2 hours prior to labeling of DNA with iododeoxyuridine (IdU) and/or chlorodeoxyuridine (CldU).

Experiment [3] relates to HCT116 cells. The experiment in a line: dNTP amount in treated cells. The experiment is classed as cell-based, human. An excerpt:
The effect of DHS on dNTP synthesis was investigated by measuring the amount of dNTPs in DHS-treated HCT116 cells.

The next experiment addresses T1, RRM2 (Homo sapiens, UniProt P31350).
T1 construct: endogenous in cells; host or cells: HCT116
T1 sequence (P31350 1-389): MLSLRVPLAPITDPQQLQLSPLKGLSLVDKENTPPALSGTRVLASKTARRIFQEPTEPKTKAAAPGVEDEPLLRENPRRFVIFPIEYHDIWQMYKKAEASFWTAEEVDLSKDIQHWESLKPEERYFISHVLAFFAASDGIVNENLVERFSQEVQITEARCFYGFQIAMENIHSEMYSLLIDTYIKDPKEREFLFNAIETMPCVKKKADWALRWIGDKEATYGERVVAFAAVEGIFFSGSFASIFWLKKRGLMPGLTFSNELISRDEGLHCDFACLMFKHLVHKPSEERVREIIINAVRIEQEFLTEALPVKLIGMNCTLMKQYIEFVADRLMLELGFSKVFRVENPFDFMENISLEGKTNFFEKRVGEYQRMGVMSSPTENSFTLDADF
The experiment in a line: Thermal shift assay in HCT116 cells, RRM2. The experiment is classed as cell-based. On the procedure:
(§3) To investigate binding of DHS to RRM1 and RRM2, a thermal shift assay was performed in HCT116 cells treated with DMSO (vehicle), resveratrol, DHS, gemcitabine, or hydroxyurea (Hu). Gemcitabine is known to bind RRM1 (Plunkett et al., 1995 and Chen et al., 2011), and Hu has been reported to bind RRM2 (Thelander et al., 1985). […] DHS stabilized RRM2 protein in a dose responsive manner (5 to 20 μM DHS; FIG. 11A). To rule out nonspecific effects of DHS on RRM2, an in vitro thermal shift assay was conducted. Purified RRM1 and RRM2 were mixed and then incubated with DHS or Hu for 4 hours before performing the assay.

A further experiment has as its system HCT116 xenograft tumor. Briefly: HCT116 xenograft tumor model. The experiment is classed as in vivo, nude mice. The settings on record: Day 38; DHS 50 mg/kg i.p. 14 consecutive days; cisplatin 8 mg/kg i.p.
Another experiment deals with T2, RRM1 (Homo sapiens, UniProt P23921).
T2 construct: endogenous in cells; host or cells: HCT116
T2 sequence (P23921 whole entry): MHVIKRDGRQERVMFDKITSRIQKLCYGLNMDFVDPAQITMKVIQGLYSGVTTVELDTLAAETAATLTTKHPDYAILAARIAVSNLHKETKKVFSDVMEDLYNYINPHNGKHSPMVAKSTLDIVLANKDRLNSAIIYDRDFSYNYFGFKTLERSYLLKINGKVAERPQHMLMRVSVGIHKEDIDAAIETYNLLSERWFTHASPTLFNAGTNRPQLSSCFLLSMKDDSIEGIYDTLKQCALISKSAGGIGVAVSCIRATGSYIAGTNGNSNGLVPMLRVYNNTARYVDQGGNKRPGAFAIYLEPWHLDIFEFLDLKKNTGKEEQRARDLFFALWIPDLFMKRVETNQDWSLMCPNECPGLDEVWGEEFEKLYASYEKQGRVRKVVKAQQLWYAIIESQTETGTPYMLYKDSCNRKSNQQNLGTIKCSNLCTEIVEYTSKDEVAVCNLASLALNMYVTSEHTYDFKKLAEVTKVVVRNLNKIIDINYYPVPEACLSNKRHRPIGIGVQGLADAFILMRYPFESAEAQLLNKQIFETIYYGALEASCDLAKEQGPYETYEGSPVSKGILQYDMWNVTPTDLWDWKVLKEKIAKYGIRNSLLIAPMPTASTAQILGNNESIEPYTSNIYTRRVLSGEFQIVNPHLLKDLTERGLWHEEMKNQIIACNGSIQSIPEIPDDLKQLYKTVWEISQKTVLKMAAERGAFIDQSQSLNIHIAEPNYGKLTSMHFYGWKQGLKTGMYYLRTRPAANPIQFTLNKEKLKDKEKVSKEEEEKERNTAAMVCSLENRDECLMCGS
The experiment in a line: Thermal shift assay in HCT116 cells, RRM1. It counts as cell-based. As to the method:
as §3

Another experiment deals with And-1. The experiment in a line: High-throughput screening, HEK-293T-And-1-Luc cells. It counts as cell-based. The settings on record: 48 hours. On the procedure:
High-throughput drug screening was performed using a HEK-293T-And-1-Luc cell line expressing Luciferase fused to And-1 (FIG. 1A). The level of cellular Luciferase activity was reflective of the level of And-1 protein. […] In the drug screening assays, cells were treated with testing drugs for 48 hours.

The test system of experiment [4] is HCT116 cells. Briefly: Cell-cycle assay. The experiment is classed as cell-based, human. The settings on record: 10 μM. On the procedure: A cell-cycle assay was conducted to study whether DHS would affect cell-cycle progression.

Experimental for HCT116 xenograft tumor: Xenograft mouse models. […] In xenograft studies, HCT116 (3×10^6 cells) and IGROV3/CP2 (5×10^6 cells) suspended in 100 μl of phosphate buffered saline (PBS, pH 7.4) were injected subcutaneously into the lower flank of the mice. Testing compounds were dissolved in DMSO/Tween 80/saline (10:10:80; v/v/v) buffer and were used to treat animals through intraperitoneal (i.p.) injection. […] The body weight of animals was measured throughout the study. Tumor diameters were measured with digital calipers, and the tumor volume in mm^3 was calculated by the formula: Volume=(width)^2×length/2.
HCT116 cells (5×10^6) were injected subcutaneously in nude mice and grown to approximately 100 mm^3 in volume. […] To study the preclinical toxicity of DHS, samples of hearts, livers, spleens, lung, and kidneys were collected on Day 38 and sections were stained for histological examination.

What is called IC50 is the midpoint of a concentration-inhibition curve. Consider `Oc1ccc(/C=C/c2ccccc2)cc1` [#3, (E)-4-styrylphenol], for which the 50% inhibitory concentration (IC50) with MDA-231/GFP is 45.1 ± 13.9 µM; with HCT116 it was 32.2 ± 5.88 µM; in [1] it was 23.6 to 109 µM; in the experiment on PANC-1 it was 109 ± 63.7 µM; in the experiment on U2OS, 23.6 ± 3.83 µM.
Consider `C[C@@]1(CO)[C@H](O)CC[C@@]2(C)[C@H]1CC[C@H]1C[C@@H]3C[C@@]12CC[C@]3(O)CO` [Aph, Aphidicolin, reference compound], for which the DNA replication stalling result in the experiment on HCT116 cells [2] was “caused DNA replication stalling”.
As to `Oc1ccc(/C=C/C=C/c2ccccc2)cc1O` [#5, 4-((1E,3E)-4-phenylbuta-1,3-dien-1-yl)benzene-1,2-diol], the IC50 was found to be 5.47 ± 4.02 µM with MDA-231/GFP, 9.5 ± 3.64 µM with HCT116, 18.4 ± 8.87 µM in the experiment on PANC-1 and 4.66 ± 2.67 µM with U2OS.
As to `NC(=O)NO` [Hydroxyurea, reference compound], the concentration for half-maximal inhibition (IC50) with MDA-231/GFP was 704 µM; with HCT116, 306 ± 61.1 µM; in the experiment on PANC-1 it was 2400 ± 485 µM; in the experiment with U2OS, 262 ± 181 µM. The dNTP synthesis entry in the experiment on HCT116 cells [3] was “did not”. For the same compound, at RRM2, the “RRM2 levels in thermal shift assay (binding)” value is “robust levels of RRM2”. Moreover, in the experiment on HCT116 cells [2], the DNA replication stalling result is “caused DNA replication stalling”.
As for `N.N.[Cl][Pt][Cl]` [Cisplatin, reference compound], the “Reduction in tumor volume as compared with the vehicle control group” value in the experiment with HCT116 xenograft tumor is roughly 50%.
As to `Oc1ccc(/C=C/C=C/C=C/c2ccc(O)cc2)cc1` [#2, 4,4′-((1E,3E,5E)-hexa-1,3,5-triene-1,6-dyl)diphenol], the IC50 in the experiment with MDA-231/GFP came out at 57.9 ± 15.4 µM; in the experiment with HCT116, 11.7 ± 6.46 µM; with PANC-1, 123 ± 93.4 µM; in the experiment on U2OS, 0.37 ± 0.28 µM.
The matching figures for `Oc1ccc(/C=C/C=C/c2ccc(O)cc2)cc1` [#1, 4,4′-((1E,3E)-buta-1,3-diene-1,4-diyl)diphenol]: 70.7 ± 16.7 µM, 6.48 ± 3.98 µM, 308 ± 86.3 µM and 1.1 ± 1.05 µM.
With `Oc1ccc(/C=C/c2ccccc2)cc1O` [#4, (E)-4-styrylbenzene-1,2-diol], the IC50 in the experiment on MDA-231/GFP was 13.7 ± 2.98 µM; with HCT116 it was 50.2 ± 9.72 µM; in experiment [1] it was 13.7 to 57.1 µM; in the experiment on PANC-1, 57.1 ± 44.7 µM; with U2OS, 33.6 ± 28 µM.
As to `Nc1ccn([C@@H]2O[C@H](CO)[C@@H](O)C2(F)F)c(=O)n1` [Gemcitabine, reference compound], the concentration for half-maximal inhibition (IC50) with MDA-231/GFP is 0.03 ± 0.04 µM; in the experiment on HCT116 it was 0.046 ± 0.041 µM; in the experiment with PANC-1 it was 7.43 ± 5.24 µM; with U2OS, 0.51 ± 0.17 µM. Moreover, the “RRM1 levels in thermal shift assay (binding)” value at RRM1 is “robust levels of RRM1”.
Take `Oc1ccc(/C=C/c2cc(O)cc(O)c2)cc1` [Resveratrol, 3,5,4′-trihydroxy-trans-stilbene, reference compound]: the IC50 was 42.4 ± 4.9 µM in the experiment with MDA-231/GFP; 24.5 ± 3.32 µM in the experiment on HCT116; 24.5 to 82 µM in [1]; 82 ± 24.4 µM in the experiment on PANC-1; 30.2 ± 4.22 µM in the experiment with U2OS. For the same compound, the dNTP synthesis entry with HCT116 cells [3] is “did not”. Also, the “And-1 protein level (luciferase activity)” value in the experiment on And-1 is listed as “causing down-regulation of And-1 protein”. The “Effect on cell-cycle progression” value in the experiment on HCT116 cells [4] is on record as “did not change the cell-cycle population”.
